Results from the NIST ThermoML archive (doi:10.1016/j.fluid.2004.11.019).

Assay: xn = mol fraction of the nth substance listed
Details: 348.15 K, Liquid

CCO [ethanol] + O
mass density [kg/m3]
Details | 10000 kPa | 20000 kPa | 30000 kPa
x1 = 0.003 | – | 981.9 | 986.1
x1 = 0.0042 | – | 980.6 | 984.8
x1 = 0.0082 | – | 979.4 | 983.6
x1 = 0.0119 | – | 977.7 | 981.9
x1 = 0.0158 | – | 975.3 | 979.4
x1 = 0.0184 | – | 973.9 | 978.1
x1 = 0.0219 | – | 972.6 | –
x1 = 0.0255 | – | 970.7 | –
x1 = 0.0279 | – | 969.1 | –
x1 = 0.0315 | – | 968 | –
x1 = 0.0366 | – | 965.3 | –
x1 = 0.0392 | – | 963.8 | –
x1 = 0.0439 | – | 962.1 | –
x1 = 0.0483 | 955.6 | 959.9 | –
x1 = 0.0516 | 954.6 | 958.9 | –
x1 = 0.0559 | 953.2 | 957.5 | –
x1 = 0.06 | 951.3 | 955.8 | –
x1 = 0.0652 | 949.1 | 953.5 | –
x1 = 0.0679 | 948.2 | 952.5 | –
x1 = 0.0722 | 946.1 | 950.4 | –
x1 = 0.0801 | 942.6 | 947 | –
x1 = 0.084 | 941.9 | 946.3 | –
x1 = 0.0879 | 939.9 | 944.4 | –
x1 = 0.0926 | 938.1 | 942.6 | –
x1 = 0.0958 | 936.8 | 941.3 | –
x1 = 0.1006 | 934.9 | 939.4 | –
x1 = 0.1111 | 930.7 | 935.3 | –
x1 = 0.1225 | 926.3 | 931.1 | –
x1 = 0.1296 | 923.6 | 928.3 | –
x1 = 0.1402 | 919.5 | 924.4 | –
x1 = 0.151 | 915.4 | 920.3 | –
x1 = 0.1601 | 912.1 | 917.1 | –
x1 = 0.1703 | 908.4 | 913.5 | –
x1 = 0.18 | 904.8 | 910 | –
x1 = 0.1903 | 901.3 | 906.5 | –
x1 = 0.1996 | 898.1 | 903.4 | –
x1 = 0.2269 | 888.9 | 894.4 | –
x1 = 0.2502 | 881.6 | 887.3 | –
x1 = 0.2745 | 874.2 | 880.2 | –
x1 = 0.3009 | 866.8 | 872.9 | –
x1 = 0.35 | 853.6 | 860 | –
x1 = 0.4034 | 840.7 | 847.5 | –
x1 = 0.4501 | 830.3 | 837.4 | –
x1 = 0.498 | 820.7 | 828.1 | –
x1 = 0.5501 | 811 | 818.7 | –
x1 = 0.5998 | 802.5 | 810.5 | –
x1 = 0.6489 | 794.6 | 802.9 | –
x1 = 0.6967 | 787.6 | 796.1 | –
x1 = 0.7475 | 780.7 | 789.4 | –
x1 = 0.7996 | 774 | 783 | –
x1 = 0.8484 | 768 | 777.3 | –
x1 = 0.8993 | 762.1 | 771.6 | –
x1 = 0.9503 | 756.7 | 766.4 | –
x1 = 1 | 751.2 | 761.2 | –
